Source: patent publication US20250325684A1, “POTENT ANTI-CANCER CYCLOTIDES” (University of Southern California, priority 2022, published 2025)
Numbered stars: 1 amine (or outer) side, 2 acyl side, 3 side chain; on linkers, the order of the positions; unused ones are H or OH. Bridge positions count the residues as written; N and C are the ends. Square brackets hold non-standard residues; d marks the D form. Peptide text beside a SMILES is read from it. I, II: the chains in the order shown. X1 = O=C(CCc1cn(CCOCCOCCOCCC(=O)[*:2])nn1)[*:1]; isoGln = NC(=O)[C@H](CCC(=O)[*:2])N[*:1]

Key:
HCT116^−/− = assay: MTT cell viability, HCT116 p53-null cells; type: cell-based, human; conditions: HCT116^−/− colon carcinoma, p53 Null; MTT; read-out: EC50
Method: Cell viability assay in several human cancer cell lines (See Tables 1 to 10). Cell lines were cultured in RPMI 1640 (or recommended medium when indicated) medium supplemented with 10% fetal calf serum, penicillin (50 IU/mL) and streptomycin ([…]) at 37° C. in 5% CO2. Cell viability studies was carried using the MTT (3-(4,5-dimethylthiazol-2-yl)-2,5-diphenyltetrazolium bromide) assay as previously described (31). Briefly, ≈2×10^3 CRC cells were be seeded in 96-well microtiter plates in 100 μL RPMI 1640 in the presence of 10% calf serum. […] After 1 h, 210 μL/well of full complemented media was added, the cells were grown for 48 h and then treated with 20 μL of a solution of MTT (5 mg/mL) for 2 h. The medium was discarded and DMSO ([…]) was added to each well and incubated with gentle shaking for 20 min at room temperature. The absorbance at 595 nm of the solution is analyzed using a Tecan Genios Multifunctional Microplate Reader (Tecan System Inc) and the background at 670 nm subtracted. RNA-Seq analysis was performed using state-of-the-art bioinformatics tools. Briefly, raw RNA-Seq reads were mapped to human genome (hg38) using STAR aligner (v2.7.3a). Gencode Release 36 reference was used for annotation. Transcript and gene expression levels were quantified using the IsoEM (37) with default parameters. […]
Cell viability was evaluated using the MTT assay as described above.

[1] = Toxicity observation in tumor-bearing mice; type: in vivo, mouse; conditions: dosed up to 40 mg/kg three times per week
Method: Tumor samples were also subjected to SDS-PAGE and analyzed by western blotting for p53, Hdm2, and p21. GAPDH was used as loading control in western blots.
Mice xenografts studies. HCT116 p53^−/− and CT26 xenografts were established by injecting 100 uL suspension of basal RPMI containing 0.5×10^6 cells into the rear right flanks of female nude mice (nu/nu) mice (HCT116) or Balb/C (CT26). […] Compounds were prepared in a D5W at a final volume of 50 μL (peptide) or 100 μL (Nutlin-3). Health checks were performed daily to observe parameters such as body conditioning score, overall appearance and cleanliness, strength of grip, skin color and tone, mobility, gait and activity level as indicators of potential drug related toxicities. Individual weights were recorded thrice weekly, comparing the control and treatment groups as an additional indicator of tolerance of drug treatment as well as providing the average weight for calculation of drug dosing. Tumor size was measured with calipers. Tumor volume was calculated by measuring tumor size in two dimensions and applying those measurements to the calculation V=d^2×D/2, where d and D equal to the smaller and larger of the two measurements, respectively. Mice bearing tumors larger than 2.4 cm^3 were removed from the study, sacrificed and necropsies performed to gather tumor and organ samples for histological analysis. […]

HCT116 xenografts = assay: HCT116 xenograft in nude mice; type: in vivo, mouse; conditions: two murine models of colorectal carcinoma
Method: Mice xenografts studies. HCT116 p53^−/− and CT26 xenografts were established by injecting 100 uL suspension of basal RPMI containing 0.5×10^6 cells into the rear right flanks of female nude mice (nu/nu) mice (HCT116) or Balb/C (CT26). When tumors reached an average volume of ≈100 mm^3, cohorts (n≥4) were treated with vehicle (5% dextrose in water, D5W), MCo-52-2-cTAT (40 mg/kg), or Nutlin-3 (20 mg/kg, […]) once daily for up to 38 days by intravenous injection (MCo-52-2-cTAT and vehicle) or by intraperitoneal administration (Nutlin-3) for HCT116 xenografts; or with vehicle (D5W), MCo-52-2-cTAT (25 mg/kg) three times per week by intraperitoneal injection. Compounds were prepared in a D5W at a final volume of 50 μL (peptide) or 100 μL (Nutlin-3). […] Individual weights were recorded thrice weekly, comparing the control and treatment groups as an additional indicator of tolerance of drug treatment as well as providing the average weight for calculation of drug dosing. Tumor size was measured with calipers. Tumor volume was calculated by measuring tumor size in two dimensions and applying those measurements to the calculation V=d^2×D/2, where d and D equal to the smaller and larger of the two measurements, respectively. […]

Compound	EC50 (HCT116^−/−)	Toxic effects [1]	p53 expression on tumor tissue (western blotting) (HCT116 xenografts)
N=C(N)NCCC[C@@H]1NC(=O)[C@@H](CCCNC(=N)N)NC(=O)[C@H](CCCCN)NC(=O)[C@@H](N)CCCCNC(=O)CC[C@@H](C(=O)O)NC(=O)[C@@H](CCCNC(=N)N)NC(=O)[C@H](CCCNC(=N)N)NC(=O)[C@@H](CCCCN)NC(=O)[C@H](CCCCN)NC(=O)[C@@H](CCCNC(=N)N)NC(=O)CNC(=O)[C@@H](CCCNC(=N)N)NC1=O [cTAT] (H-KK[dR]R[dR]G[dR]K[dK]R[dR]E-OH; lactam 1-12; N-terminus and C-terminus assumed)	> 100 µM		
I: cyclo(ACICRHDSYCGSGSDGGVCPNLYLLCRRDKDCPG) / II: KK[dR]R[dR]G[dR]K[dK]R[dR][isoGln] (disulfide I:2-I:19, I:4-I:26, I:10-I:32; linker I:30-II:N via X1; lactam II:1-II:C) [Cyclotide 52-2-cTAT]		No toxic effects were detected	stabilizes p53 expression on tumor tissue
